Reference: patent publication US12209154B2, “Polymer material” (MENICON CO., LTD., priority 2019, dated 2025)

Assay: Solubility of compatibilizing monomer in water at 25° C.
Format: physicochemical

SMILES	solubility [µg/mL]
C=C(C)C(=O)OC12CC3CC(O)(CC(O)(C3)C1)C2 [DHADM]	< 10000
C=C(C)C(=O)OCC(O)COC(=O)C(O)CCCCCC (stereo not shown) [MA(OH)OCO(OH)Hp]	< 10000
C=C(C)C(=O)OCC(O)CC(F)(F)C(F)(F)C(F)(F)C(F)(F)F (stereo not shown) [C4F9CH2CH(OH)CHMA]	< 10000
C=C(C)C(=O)OCC(O)COCC(CC)CCCC (stereo not shown) [EH(OH)MA]	< 10000
C=C(C)C(=O)OCC(O)COC(=O)C12CC3CC(CC(C3)C1)C2 (stereo not shown) [AdaCO(OH)MA]	< 10000
C=C(C)C(=O)OCC(O)COC(=O)C(C)(C)C (stereo not shown) [tBuCO(OH)MA]	< 10000
C=CC(=O)OC12CC3CC(CC(O)(C3)C1)C2 [HADA]	< 10000
C=C(C)C(=O)OCC(O)COC(C)(C)C (stereo not shown) [tBu(OH)MA]	< 10000
C=C(C)C(=O)OCC(O)COC(=O)C1CCCCC1 (stereo not shown) [CyCO(OH)MA]	< 10000
C=C(C)C(=O)OCC(O)COC(C)C (stereo not shown) [iPr(OH)MA]	< 10000
